13 molecules from ChEMBL document CHEMBL1201862, “PubChem BioAssay data set” (2004) can be followed below.

Some test systems named below: KM12; M14; A549; EKVX; HT-29; HL-60; SK-MEL-5; UO-31; MOLT-4; SNB-19; NCI-H460; ACHN; NCI-H522; OVCAR-4; HOP-62; HCC 2998.
Holding throughout (experiment): growth of human tumour cells (NCI), 48 h

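All cell lines were grown in 96-well plates and treated with compound for 48 hours. The concentration for 50% growth inhibition is given as GI50.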 Calls of active or inactive are those of the source. Cut-off read from the data, not from the text of the source: active = GI50 up to about 1.1 µM and inactive = higher. A value given as a limit tells only on which side of the number the result lay.

Turning to `CCN(CC)Cc1cc(Nc2c3ccccc3nc3c2[nH]c2ccccc23)ccc1O`, the GI50 was 1.36 µM (inactive) in the experiment with KM12; 1.7 µM (inactive) in the experiment on M14; 0.352 µM (active) in the experiment with A549; 2.45 µM (inactive) with EKVX; 0.52 µM (active) with HT-29; 2.16 µM (inactive) with HL-60. The GI50 is 1.89 µM (inactive) with SK-MEL-5; 1.52 µM (inactive) with UO-31; 0.508 µM (active) with MOLT-4; 1.63 µM (inactive) in the experiment with SNB-19; 0.75 µM (active) in the experiment with NCI-H460; 0.875 µM (active) in the experiment on ACHN. For the same molecule, the GI50 was 1.13 µM (inactive) in the experiment on NCI-H522, 1.39 µM (inactive) with OVCAR-4 and 1.14 µM (inactive) in the experiment with HOP-62.
Consider `N#CCC(=O)N1CCCCCCC1`, for which the GI50 is 76.4 µM (inactive) in the experiment on KM12; > 100 µM (inactive) in the experiment with M14; 69.3 µM (inactive) in the experiment on HCC 2998; > 100 µM (inactive) with A549; > 100 µM (inactive) in the experiment on EKVX; 29.6 µM (inactive) with HT-29. Besides, the GI50 in the experiment on HL-60 was 28.2 µM (inactive); with SK-MEL-5, > 100 µM (inactive); with UO-31 it was > 100 µM (inactive); in the experiment with SNB-19 it was > 100 µM (inactive); in the experiment with NCI-H460, 42.7 µM (inactive); in the experiment on ACHN it was > 100 µM (inactive). The GI50 in the experiment with OVCAR-4 and with HOP-62 was > 100 µM (inactive) throughout.
In the case of `CCOC(=O)C(=C=Cc1cccs1)C(=O)c1ccccc1`, the GI50 in the experiment with KM12 is 12.3 µM (inactive); in the experiment with M14, 15 µM (inactive); with HCC 2998, 17.4 µM (inactive); with A549 it was 18.9 µM (inactive); with EKVX it was 16.7 µM (inactive); in the experiment with HT-29, 19.4 µM (inactive). The GI50 in the experiment on HL-60 is 24.6 µM (inactive); with SK-MEL-5 it was 3.38 µM (inactive); in the experiment with UO-31, 14.3 µM (inactive); with MOLT-4, 19.2 µM (inactive); in the experiment with NCI-H460 it was 20.4 µM (inactive); in the experiment on ACHN, 18.8 µM (inactive). Also, the GI50 in the experiment on NCI-H522 was 15.1 µM (inactive); in the experiment on OVCAR-4, 17 µM (inactive); in the experiment with HOP-62, 18.7 µM (inactive).
Turning to `COC(=O)C1=C(O)C(O)=C(C(=O)OC)CC1`, the GI50 with KM12 is > 100 µM (inactive); with M14, > 100 µM (inactive); in the experiment on HCC 2998, > 100 µM (inactive); in the experiment on A549, 37 µM (inactive); with EKVX it was > 100 µM (inactive); in the experiment with HT-29, > 100 µM (inactive). Besides, the GI50 in the experiment on HL-60, in the experiment on SK-MEL-5, in the experiment with UO-31, in the experiment on MOLT-4, in the experiment on SNB-19 and in the experiment with NCI-H460 was > 100 µM (inactive) throughout. Further, the GI50 in the experiment on ACHN, in the experiment with NCI-H522, with OVCAR-4 and in the experiment on HOP-62 was > 100 µM (inactive) in each case.
On to `O=C(NC12CC3CC(CC(F)(C3)C1)C2)c1ccccc1`, for which the GI50 in the experiment with KM12, in the experiment with M14, in the experiment on HCC 2998, in the experiment with A549, in the experiment with EKVX and in the experiment with HT-29 was > 100 µM (inactive) each time. Further, the GI50 in the experiment with HL-60 was > 100 µM (inactive); in the experiment with UO-31, 59.2 µM (inactive); with MOLT-4, > 100 µM (inactive); in the experiment with SNB-19, > 100 µM (inactive); in the experiment with NCI-H460, > 100 µM (inactive); with ACHN, > 100 µM (inactive). In addition, the GI50 in the experiment with NCI-H522 and with HOP-62 was > 100 µM (inactive) throughout.
In the case of `O=C1CSC(/C(=C/c2ccccc2)c2nc3ccccc3[nH]2)=N1`, the GI50 in the experiment on KM12 is 32.4 µM (inactive); in the experiment with M14, 57 µM (inactive); in the experiment with HCC 2998, > 100 µM (inactive); in the experiment on A549 it was 72.6 µM (inactive); in the experiment with EKVX, > 100 µM (inactive); in the experiment with HT-29, 73.6 µM (inactive). Moreover, the GI50 with HL-60 is 71.9 µM (inactive); in the experiment on SK-MEL-5 it was 19.7 µM (inactive); in the experiment on UO-31 it was > 100 µM (inactive); in the experiment with MOLT-4 it was > 100 µM (inactive); in the experiment on SNB-19, 25.9 µM (inactive); in the experiment with NCI-H460 it was > 100 µM (inactive). Further, the GI50 with ACHN was > 100 µM (inactive); in the experiment on NCI-H522, 41.9 µM (inactive); in the experiment on OVCAR-4, > 100 µM (inactive); in the experiment with HOP-62 it was 41.2 µM (inactive).
Consider `N#CC(C#N)=C1SCC(=O)CS1`, for which the GI50 in the experiment on KM12, in the experiment on M14, in the experiment with HCC 2998, in the experiment with A549, in the experiment with EKVX and in the experiment on HT-29 was > 100 µM (inactive) each time. In addition, the GI50 in the experiment with HL-60, with SK-MEL-5, in the experiment on UO-31, in the experiment with MOLT-4, with SNB-19 and in the experiment with NCI-H460 was > 100 µM (inactive) throughout. Also, the GI50 with NCI-H522, in the experiment with OVCAR-4 and in the experiment with HOP-62 was > 100 µM (inactive) each time.
As to `CCCC(O)c1cn(-c2cccc(S(=O)(=O)O)c2)nn1` (stereo not given), the GI50 in the experiment on KM12, in the experiment on M14, in the experiment with HCC 2998, with A549, in the experiment on EKVX and with HT-29 was > 100 µM (inactive) each time. For the same molecule, the GI50 in the experiment with HL-60, in the experiment on SK-MEL-5, in the experiment with UO-31, in the experiment on MOLT-4, in the experiment on SNB-19 and with NCI-H460 was > 100 µM (inactive) each time. Moreover, the GI50 with ACHN, in the experiment on NCI-H522, in the experiment on OVCAR-4 and in the experiment with HOP-62 was > 100 µM (inactive) each time.
For the molecule `CC(C)(C)NNC(=O)/C(=C/c1ccc([N+](=O)[O-])cc1)NC(=O)c1ccccc1`, the GI50 in the experiment on KM12, in the experiment with M14, in the experiment on HCC 2998, in the experiment on A549, in the experiment with EKVX and in the experiment on HT-29 was > 100 µM (inactive) each time. In addition, the GI50 was 44.8 µM (inactive) in the experiment with HL-60; > 100 µM (inactive) in the experiment with SK-MEL-5; > 100 µM (inactive) in the experiment on UO-31; 41.3 µM (inactive) with MOLT-4; > 100 µM (inactive) in the experiment with SNB-19; 60.1 µM (inactive) in the experiment with NCI-H460. Further, the GI50 is > 100 µM (inactive) in the experiment on ACHN, 24.2 µM (inactive) in the experiment with NCI-H522, 75 µM (inactive) with OVCAR-4 and > 100 µM (inactive) in the experiment with HOP-62.
For the molecule `COc1ccc(/C=N/N=C(\N)NO)cc1O`, the GI50 was 45.8 µM (inactive) in the experiment on KM12; 17.5 µM (inactive) in the experiment with HCC 2998; 27.6 µM (inactive) in the experiment with A549; 29.3 µM (inactive) with EKVX; 40.9 µM (inactive) with HT-29; 31.9 µM (inactive) in the experiment on SK-MEL-5. The GI50 in the experiment on UO-31 was 45 µM (inactive); in the experiment on MOLT-4 it was > 100 µM (inactive); in the experiment on SNB-19 it was > 100 µM (inactive); in the experiment on NCI-H460, 25.5 µM (inactive); in the experiment with NCI-H522 it was > 10 µM (inactive); with OVCAR-4 it was 45.4 µM (inactive).
On to `C=CCc1cc(-c2cc(CC=C)c(O)c(CNC)c2)cc(CNC)c1O`, for which the GI50 in the experiment with KM12 is 16.6 µM (inactive); in the experiment on M14 it was 15.6 µM (inactive); in the experiment on HCC 2998 it was 16.3 µM (inactive); with A549, 17.8 µM (inactive); with HT-29, 15.3 µM (inactive); with HL-60, 14.9 µM (inactive). For the same molecule, the GI50 is 16.1 µM (inactive) in the experiment with SK-MEL-5; 12.9 µM (inactive) in the experiment on UO-31; 10.9 µM (inactive) in the experiment on MOLT-4; 13.3 µM (inactive) in the experiment on SNB-19; 16.3 µM (inactive) with NCI-H460; 17.8 µM (inactive) with ACHN. The GI50 in the experiment on NCI-H522 is 14.8 µM (inactive); in the experiment with OVCAR-4, 16.5 µM (inactive); with HOP-62, 18.8 µM (inactive).
Take `O=C(COC(=O)c1cccc2c(=O)c3ccccc3[nH]c12)Nc1ccc(Cl)cc1`: the GI50 with KM12 is 28.9 µM (inactive); with M14, 78.9 µM (inactive); with HCC 2998, > 100 µM (inactive); in the experiment with A549, > 100 µM (inactive); in the experiment with EKVX, 8.28 µM (inactive); with HT-29 it was 67.9 µM (inactive). For the same molecule, the GI50 is 11.6 µM (inactive) with HL-60; 44.2 µM (inactive) in the experiment on SK-MEL-5; 9.64 µM (inactive) in the experiment with UO-31; 26.3 µM (inactive) with MOLT-4; 35 µM (inactive) in the experiment with SNB-19; 63.4 µM (inactive) in the experiment on NCI-H460. In addition, the GI50 in the experiment on ACHN was 32.8 µM (inactive); in the experiment on NCI-H522 it was 23.9 µM (inactive); in the experiment on OVCAR-4, 95.9 µM (inactive); in the experiment on HOP-62, 22.1 µM (inactive).
As to `C/C(=N/Nc1ccc([N+](=O)[O-])cc1[N+](=O)[O-])C(CC(C(=O)Nc1ccccc1C)/C(C)=N\Nc1ccc([N+](=O)[O-])cc1[N+](=O)[O-])C(=O)Nc1ccccc1C` (stereo not given), the GI50 in the experiment on KM12 is 15.3 µM (inactive); in the experiment on M14, 18 µM (inactive); with HCC 2998, 21.6 µM (inactive); in the experiment with A549 it was 19.7 µM (inactive); with EKVX, 18.2 µM (inactive); with HT-29, 14.8 µM (inactive). Besides, the GI50 is 1.19 µM (inactive) in the experiment on HL-60; 17.2 µM (inactive) with SK-MEL-5; 11.5 µM (inactive) in the experiment on UO-31; 14 µM (inactive) in the experiment with SNB-19; 12.5 µM (inactive) in the experiment on NCI-H460; 19.7 µM (inactive) in the experiment on ACHN. The GI50 is 0.424 µM (active) in the experiment with NCI-H522, 5.74 µM (inactive) in the experiment on OVCAR-4 and 11.9 µM (inactive) in the experiment with HOP-62.
